The test system of assay [1] is RPE1-hTERT Cas9 TP53−/− parental (WT) and CCNE1-overexpressing clones. The assay can be described thus: Dose-response proliferation assay (IncuCyte confluency), RPE1-hTERT parental vs CCNE1-overexpressing clones. The assay is classed as cell-based. The following applies: dose titration, FIG. 3C.
Procedure: For dose-response proliferation assays using RPE1-hTERT and FT282-hTERT cell lines, cells were seeded in 96-well plates and dosed with serially diluted Myt1 inhibitor. Cells were imaged once per day using the IncuCyte S3 microscope and percent well confluency was calculated over time. Once cells reached four population doublings the experiment was ended and IC50 curves were plotted for the final time point. Percentage confluency was calculated relative to the cell confluency in the untreated wells.
For assay [2], the target named is T1, recombinant human Myt1 (full length PKMYT1) (Homo sapiens, UniProt Q99640).
T1 sequence (Q99640 1-499): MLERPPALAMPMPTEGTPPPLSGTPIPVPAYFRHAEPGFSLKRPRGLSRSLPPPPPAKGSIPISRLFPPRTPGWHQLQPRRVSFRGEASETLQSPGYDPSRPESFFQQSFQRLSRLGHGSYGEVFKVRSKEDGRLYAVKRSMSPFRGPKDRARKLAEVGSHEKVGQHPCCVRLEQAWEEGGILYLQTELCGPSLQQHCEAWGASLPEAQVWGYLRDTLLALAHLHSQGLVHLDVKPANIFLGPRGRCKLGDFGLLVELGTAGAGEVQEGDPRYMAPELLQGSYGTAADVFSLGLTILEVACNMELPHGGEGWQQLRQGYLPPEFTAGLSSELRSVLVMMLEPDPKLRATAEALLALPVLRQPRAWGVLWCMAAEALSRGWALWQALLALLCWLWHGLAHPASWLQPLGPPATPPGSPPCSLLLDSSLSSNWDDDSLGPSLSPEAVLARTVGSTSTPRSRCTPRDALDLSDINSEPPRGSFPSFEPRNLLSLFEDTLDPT
The assay is described as follows: Myt1 enzymatic assay (ADP-Glo kinase assay, ATP hydrolysis).
Procedure: Detection of Myt1 kinase activity utilized a recombinant human Myt1 kinase assay measuring the hydrolysis of ATP using a commercially available ADP-Glo Assay (ADP-Glo™ Kinase Assay from Promega, 10 000 assays, #V9102). […] After this, 5 μL of compounds (diluted in reaction buffer to 0.5% DMSO) was added to the microplate and the plate was spun briefly and incubated at 22° C. for 15 minutes. […] Luminescence was read using the Envision (250 ms integration). The IC50 and the % max inhibition were calculated for each inhibitor compound tested.

For the molecule `Cc1ccc(O)c(C)c1-n1c(N)c(C(N)=O)c2cc(Cl)cnc21` (single isomer, unassigned) [Compound 133, S-2-amino-5-chloro-1-(3-hydroxy-2,6-dimethyl-phenyl)pyrrolo[2,3-b]pyridine-3-carboxamide], the “sensitivity (cell viability) of CCNE1-overexpressing cells compared with corresponding WT cells” value in assay [1] was “more sensitive”.
`Cc1ccc(O)cc1-n1c(N)c(C(N)=O)c2nc(Cl)ccc21` [Compound 4]: the IC50 (as a rule, the midpoint of a concentration-inhibition curve) in assay [2] is 922 nM.

The values are drawn from patent US20230158022A1, “METHODS OF USING MYT1 INHIBITORS” (Repare Therapeutics Inc., priority 2020, published 2023).
